Data as given in patent US20050004126A1 (priority 2001, published 2005).
Read-outs that look alike come from different tables or passages of the source.

How the values were obtained:
[1] = biological target: T1, MMP-13CD (catalytic domain of collagenase 3) (Homo sapiens, UniProt P45452); experiment: Thiopeptolide hydrolysis assay, MMP-13;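 note: inhibition of enzymatic thiopeptolide substrate cleavage (100 µM) in pH 6.0 MES buffer with CaCl2 and DTNB, comparing hydrolysis with versus without inhibitor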
[2] = biological target: T1, MMP-13CD (catalytic domain of collagenase 3); experiment: biochemical
[3] = biological target: T2, MMP-7FL (full-length matrilysin) (Homo sapiens, UniProt P09237); experiment: Thiopeptolide hydrolysis assay, MMP-7; assay type: biochemical
T2 sequence (P09237 95-267): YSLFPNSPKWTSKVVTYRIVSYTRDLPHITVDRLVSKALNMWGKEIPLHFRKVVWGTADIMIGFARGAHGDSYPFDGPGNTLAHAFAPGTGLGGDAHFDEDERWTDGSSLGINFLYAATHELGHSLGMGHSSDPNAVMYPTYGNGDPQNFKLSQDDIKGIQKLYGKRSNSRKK

[4] = biological target: MMP-3CD (catalytic domain of stromelysin) (Homo sapiens, UniProt P08254); experiment: Thiopeptolide hydrolysis assay, MMP-3; assay type: biochemical;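 note: inhibition of thiopeptolide substrate (100 µM) cleavage by the MMP-3 catalytic domain, detected with DTNB at pH 6.0 with CaCl2, hydrolysis compared against runs lacking inhibitor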
MMP-3CD (catalytic domain of stromelysin), sequence (P08254 100-272 limits assumed): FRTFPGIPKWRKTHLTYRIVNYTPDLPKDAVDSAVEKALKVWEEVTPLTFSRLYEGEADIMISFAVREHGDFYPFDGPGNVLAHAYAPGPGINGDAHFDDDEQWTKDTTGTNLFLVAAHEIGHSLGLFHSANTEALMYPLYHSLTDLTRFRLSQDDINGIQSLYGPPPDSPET
Protocol: (§1) They measure the amount by which a test compound reduces the hydrolysis of a thiopeptolide substrate caused by a matrix metalloproteinase enzyme.
Thiopeptolide substrates show virtually no decomposition or hydrolysis in the absence of a matrix metalloproteinase enzyme. A typical thiopeptolide substrate commonly utilized for assays is Ac-Pro-Leu-Gly-thioester-Leu-Leu-Gly-OEt. A 100 μL assay mixture will contain 50 mM of 2-morpholinoethane sulfonic acid monohydrate (MES, pH 6.0) 10 mM CaCl2, 100 μM thiopeptolide substrate, and 1 mM 5,5′-dithio-bis-(2-nitro-benzoic acid) (DTNB). […] Assays are carried out with and without matrix metalloproteinase inhibitor compounds, and the amount of hydrolysis is compared for a determination of inhibitory activity of the test compounds.

[5] = biological target: MMP-14CD (catalytic domain of membrane type 1 MMP) (Homo sapiens, UniProt P50281); experiment: Thiopeptolide hydrolysis assay, MMP-14; assay type: biochemical
[6] = biological target: T3, MMP-2FL (full length Gelatinase A) (Homo sapiens, UniProt P08253); experiment: Thiopeptolide hydrolysis assay, MMP-2; assay type: biochemical
T3 sequence (P08253 110-660): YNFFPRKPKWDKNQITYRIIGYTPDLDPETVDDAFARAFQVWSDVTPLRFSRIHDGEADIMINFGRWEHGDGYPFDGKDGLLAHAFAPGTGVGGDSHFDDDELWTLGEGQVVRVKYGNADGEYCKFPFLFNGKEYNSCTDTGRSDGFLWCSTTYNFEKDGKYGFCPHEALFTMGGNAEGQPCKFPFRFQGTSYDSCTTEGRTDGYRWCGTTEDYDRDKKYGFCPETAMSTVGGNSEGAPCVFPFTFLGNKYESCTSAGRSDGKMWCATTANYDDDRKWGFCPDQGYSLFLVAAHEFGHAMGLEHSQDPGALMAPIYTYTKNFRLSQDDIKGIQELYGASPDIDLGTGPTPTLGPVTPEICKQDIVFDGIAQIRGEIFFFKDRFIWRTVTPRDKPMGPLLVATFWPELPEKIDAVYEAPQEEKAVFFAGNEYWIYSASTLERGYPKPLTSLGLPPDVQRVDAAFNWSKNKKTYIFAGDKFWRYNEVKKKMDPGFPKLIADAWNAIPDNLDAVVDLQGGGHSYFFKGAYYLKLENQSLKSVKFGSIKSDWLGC

[7] = biological target: MMP-9FL (full length Gelatinase B) (Homo sapiens, UniProt P14780); experiment: Thiopeptolide hydrolysis assay, MMP-9; assay type: biochemical
MMP-9FL (full length Gelatinase B), sequence (P14780 94-707): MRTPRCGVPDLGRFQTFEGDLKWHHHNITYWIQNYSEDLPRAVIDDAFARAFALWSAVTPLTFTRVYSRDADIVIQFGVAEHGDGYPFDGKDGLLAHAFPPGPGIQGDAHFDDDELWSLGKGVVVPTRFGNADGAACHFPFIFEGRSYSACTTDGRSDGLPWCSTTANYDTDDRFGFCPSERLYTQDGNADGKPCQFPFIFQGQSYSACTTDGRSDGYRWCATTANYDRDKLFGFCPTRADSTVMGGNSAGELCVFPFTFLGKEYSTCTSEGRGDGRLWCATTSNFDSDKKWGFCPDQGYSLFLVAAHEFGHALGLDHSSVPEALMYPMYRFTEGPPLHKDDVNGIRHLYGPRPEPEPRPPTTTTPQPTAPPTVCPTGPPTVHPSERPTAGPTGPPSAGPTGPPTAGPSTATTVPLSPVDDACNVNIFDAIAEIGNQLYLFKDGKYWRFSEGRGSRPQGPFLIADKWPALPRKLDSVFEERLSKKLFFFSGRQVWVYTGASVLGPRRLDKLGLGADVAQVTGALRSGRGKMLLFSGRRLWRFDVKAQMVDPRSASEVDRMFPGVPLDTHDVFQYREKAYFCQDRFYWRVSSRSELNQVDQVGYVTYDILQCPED

[8] = biological target: T4, MMP-1FL (full-length interstitial collagenase) (Homo sapiens, UniProt P03956); experiment: Thiopeptolide hydrolysis assay, MMP-1; assay type: biochemical
T4 sequence (P03956 100-469): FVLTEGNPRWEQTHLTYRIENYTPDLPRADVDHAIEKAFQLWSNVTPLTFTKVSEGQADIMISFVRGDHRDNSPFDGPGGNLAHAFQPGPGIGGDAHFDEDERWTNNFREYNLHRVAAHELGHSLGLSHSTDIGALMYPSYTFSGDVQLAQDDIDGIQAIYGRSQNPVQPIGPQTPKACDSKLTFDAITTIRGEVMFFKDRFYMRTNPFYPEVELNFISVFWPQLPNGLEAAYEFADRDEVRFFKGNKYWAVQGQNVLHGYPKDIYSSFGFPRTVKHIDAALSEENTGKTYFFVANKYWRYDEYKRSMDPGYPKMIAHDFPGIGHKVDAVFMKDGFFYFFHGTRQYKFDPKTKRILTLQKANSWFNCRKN
Protocol: as §1
Thiopeptolide substrates show virtually no decomposition or hydrolysis in the absence of a matrix metalloproteinase enzyme. A typical thiopeptolide substrate commonly utilized for assays is Ac-Pro-Leu-Gly-thioester-Leu-Leu-Gly-OEt. A 100 μL assay mixture will contain 50 mM of 2-morpholinoethane sulfonic acid monohydrate (MES, pH 6.0) 10 mM CaCl2, 100 μM thiopeptolide substrate, and 1 mM 5,5′-dithio-bis-(2-nitro-benzoic acid) (DTNB). […] The change in absorbance at 405 nm is monitored on a Thermo Max microplate reader (moleucular Devices, Menlo Park, Calif.) at room temperature (22° C.). […] Assays are carried out with and without matrix metalloproteinase inhibitor compounds, and the amount of hydrolysis is compared for a determination of inhibitory activity of the test compounds.

MMP-13 = MMP-13 (Homo sapiens, UniProt P45452); settings: cited from earlier work
other MMP enzymes = settings: Chen et al.; cited from earlier work
[9] = Table 1a, full-length enzyme, read-out: MMP07 (FL) IC50
[10] = Table 1a, catalytic domain, read-out: MMP14 (CD) IC50
[11] = Table 1a, full-length enzyme, read-out: MMP02 (FL) IC50
[12] = Table 1a, full-length enzyme, read-out: MMP09 (FL) IC50
[13] = Table 1a, catalytic domain, read-out: MMP03 (CD) IC50
[14] = Table 1a, full-length enzyme, read-out: MMLP01 (FL) IC50
[15] = MMP13 (CD) IC50 μM, Table 1a, catalytic domain
[16] = Table VI, synthesis examples, read-out: MMP01
[17] = Table VI, synthesis examples, read-out: MMP014
[18] = Table VI, synthesis examples, read-out: MMP02
[19] = Table VI, synthesis examples, read-out: MMP09
[20] = Table VI, synthesis examples, read-out: MMP07

O=C(NCc1ccc2c(c1)OCO2)c1ccc2[nH]c(=S)n(Cc3ccccc3)c(=O)c2c1 [3-Benzyl-4-oxo-2-thioxo-1,2,3,4-tetrahydroquinazoline-6-carboxylic acid (benzo[1,3]dioxol-5-ylmethyl)amide]
IC50 ([1]; MMP13 IC50 μM, Table IVb): 0.014 µM | IC50 [2]: 0.014 µM

O=C(OCc1ccccc1)c1cn2c(=O)n(Cc3ccccc3)c(=O)cc2s1 [Example 1]
IC50 [3, 9]: > 100 µM | IC50 ([4]; read-out: MMP03 (CD) IC50): > 100 µM | IC50 [5, 10]: > 100 µM | IC50 [6, 11]: > 100 µM | IC50 [7, 12]: > 100 µM

O=C(NCc1ccccc1)c1cn2c(=O)n(Cc3ccccc3)c(=O)cc2s1 [Example 2]
IC50 [3, 9]: > 100 µM | IC50 [4, 13]: > 100 µM | IC50 [8, 14]: > 100 µM | IC50 [5, 10]: > 100 µM | IC50 [6, 11]: 81 µM | IC50 [1, 15]: 0.51 µM | IC50 [7, 12]: > 100 µM

Cc1c(=O)n(Cc2ccccc2)c(=O)n2cc(C(=O)OCc3ccccc3)sc12 [Example 3]
IC50 [3, 9]: > 100 µM | IC50 [4, 13]: > 30 µM | IC50 [5]: > 100 µM | IC50 [6, 11]: > 100 µM | IC50 [1, 15]: 0.0056 µM | IC50 [7, 12]: > 100 µM

O=C(OCc1ccncc1)c1cn2c(=O)n(Cc3ccccc3)c(=O)cc2s1 [Example 4]
IC50 [3, 9]: ≥ 100 µM | IC50 [4, 13]: ≥ 30 µM | IC50 [5, 10]: ≥ 100 µM | IC50 [1, 15]: 0.0054 µM | IC50 [7, 12]: ≥ 100 µM

COc1ccc(CNC(=O)c2cn3c(=O)n(Cc4ccc(C(=O)O)cc4)c(=O)c(C)c3s2)cc1 [Example 5]
IC50 [3, 9]: > 100 µM | IC50 [4, 13]: 29 µM | IC50 [8, 14]: > 100 µM | IC50 [5, 10]: > 100 µM | IC50 [6, 11]: > 100 µM | IC50 [1, 15]: 0.0015 µM | IC50 [7, 12]: > 100 µM

Cc1c(=O)n(Cc2ccc(C(=O)O)cc2)c(=O)n2cc(C(=O)NCc3ccncc3)sc12 [Example 6]
IC50 [3, 9]: > 100 µM | IC50 [4, 13]: > 100 µM | IC50 [5, 10]: > 100 µM | IC50 [6, 11]: > 100 µM | IC50 [1, 15]: 0.0057 µM | IC50 [7, 12]: > 100 µM

Cc1c(=O)n(Cc2ccc(S(C)(=O)=O)cc2)c(=O)n2cc(C(=O)NCc3ccncc3)sc12 [Example 7]
IC50 [3, 9]: > 100 µM | IC50 [4, 13]: > 100 µM | IC50 [5, 10]: > 100 µM | IC50 [6, 11]: > 100 µM | IC50 [1, 15]: 0.0235 µM | IC50 [7, 12]: > 100 µM

COc1ccc(CNC(=O)c2cn3c(=O)n(Cc4ccc(Cl)c(Cl)c4)c(=O)cc3s2)cc1 [Example 8]
IC50 [3, 9]: > 100 µM | IC50 [4, 13]: > 100 µM | IC50 [8, 14]: > 100 µM | IC50 [5, 10]: > 100 µM | IC50 [6, 11]: > 100 µM | IC50 [1, 15]: 0.084 µM | IC50 [7, 12]: > 100 µM

COc1ccc(CNC(=O)c2cn3c(=O)n(Cc4ccc(C(=O)O)cc4)c(=O)c(C)c3s2)cc1 [Synthesis Example 5, 4-[2-(4-Methoxy-benzylcarbamoyl)-8-methyl-5,7-dioxo-7H-thiazolo[3,2-c]pyrimidin-6-ylmethyl]-benzoic acid]
melting point: > 210 °C

O=C(OCc1ccncc1)c1cc2c(=O)n(Cc3ccccc3)c(=O)[nH]c2s1 [Synthesis Example 18, 3-Benzyl-2,4-dioxo-1,2,3,4-tetrahydro-thieno[2,3-d]pyrimidine-6-carboxylic acid pyridin-4-ylmethyl ester]
melting point: 248 to 250 °C

COC(=O)c1ccc(Cn2c(=O)c3cc(C(=O)NCc4ccc(OC)cc4)ncc3n(C)c2=O)cc1 [Synthesis Example 54, Methyl 4-[6-(4-Methoxy-benzylcarbamoyl)-1-methyl-2,4-dioxo-1,4-dihydro-2H-pyrido[3,4-d]pyrimidin-3-ylmethyl]-benzoate]
IC50 [2]: 0.0017 µM

COC(=O)c1ccc(Cn2c(=O)c3cc(C(=O)NCc4ccc(OC)cc4)ccc3n3cnnc23)cc1 [Synthesis Example 59, Methyl 4-{7-[(4-methoxybenzyl)-carbamoyl]-5-oxo-5H-[1,2,4]triazolo[4,3-a]quinazol-4-ylmethyl}benzoate]
melting point: 210 °C | IC50 ([1]; IC50 μM, Table V, MMP-13): 0.0026 µM

O=C(O)c1ccc(Cn2c(=O)c3cc(C(=O)NCc4ccc5c(c4)OCO5)ccc3n3cnnc23)cc1 [Synthesis Example 61, 4-{7-[(1,3-Benzodioxol-5-ylmethyl)-carbamoyl]-5-oxo-5H-[1,2,4]triazolo[4,3-a]quinazol-4-ylmethyl}benzoic acid]
melting point: 235 °C | IC50 ([1]; IC50 μM, Table V, MMP-13): 0.0009 µM

Cc1cc(C)c(N(Cc2ccccc2)S(=O)(=O)c2ccc(OCCNC(=O)c3cc4ccccc4o3)cc2)c(C(=O)NO)c1 [WAY-170523]
selectivity for MMP-13 (MMP-13; as reported by Chen et al.): selective inhibitor of MMP-13

CN1C(=O)N(Cc2ccccc2)S(=O)(=O)c2cc(C(=O)OCc3ccccc3)ccc21 [compound 62]
IC50 [8, 16]: > 100 µM | IC50 [5, 17]: > 100 µM | IC50 [6, 18]: > 100 µM | IC50 [7, 19]: > 100 µM

CN1C(=O)N(Cc2ccccc2)S(=O)(=O)c2cc(C(=O)NCc3ccccc3)ccc21 [compound 63]
IC50 [3, 20]: > 30 µM | IC50 ([4]; Table VI, synthesis examples, read-out: MMP03): > 30 µM | IC50 [8, 16]: > 100 µM | IC50 [5, 17]: > 30 µM | IC50 [6, 18]: > 30 µM | IC50 [7, 19]: > 30 µM

COc1ccc(CNC(=O)c2ccc3c(c2)S(=O)(=O)N(Cc2ccc([N+](=O)[O-])cc2)C(=O)N3C)cc1 [compound 65]
IC50 [3, 20]: > 30 µM | IC50 [8, 16]: > 30 µM | IC50 [5, 17]: > 30 µM | IC50 [7, 19]: > 30 µM

O=C(NCCCCN1CCOCC1)c1cc2ccccc2o1 [compound of the formula I]
activity against other MMP enzymes (other MMP enzymes): inactive | inhibition against MMP-13 (MMP-13; high throughput screening hit, Chen et al.): weak inhibition
